# Measured values published in patent US20220193084A1, “INHIBITORS OF EZH2 AND METHODS OF USE THEREOF” (Epizyme, Inc., priority 2015, published 2022).
# Legend:
# [1] = human, in vivo
# Description: (§1) Table 10 describes a Phase 1 clinical trial design (sponsor protocol no.: E7438-G000-001, ClinicalTrials.gov identifier: NCT01897571). The study population included subjects with relapsed or refractory solid tumors or B-cell lymphoma. Subjects received a 3+3 dose escalation in expansion cohorts receiving 800 mg BID and 1600 mg BID, respectively, or a cohort for ascertaining the effect of food on dosing at 400 mg BID. The primary endpoint was a determination of recommended phase II dose (RP2D)/maximum tolerated dose (MTD). Secondary endpoints included safety, pharmacokinetics (PK), pharmacodynamics (PD) and tumor response, assessed every 8 wks.
# [2] = test system: relapsed or refractory solid tumors or B-cell lymphoma; experiment: Phase 1 clinical trial (NCT01897571): tumor response; type: in vivo, human
# Description: as §1
# relapsed refractory NHL = experiment: Phase 2 NHL trial: best response by molecular variant; type: in vivo, human
# Description: Archive and cell-free tumor DNA collected from relapsed refractory NHL patients phase I and II trials, were tested in the NGS panel as described in Examples 1 and 2. The content of the panel included molecular variants occurring in NHL at ≥5% frequency. (Tables 15 and 17-19, FIGS. 19A-22C). […] Through correction of the background error by molecular bar coding the NHL specific plasma select panel was able to accurately detect mutations down to 0.1% allelic frequency (FIG. 13A and FIG. 13B). Translocations of ALK were detected in a cell-free DNA validation test set with samples from the phase I patients at a tumor purity of as low as 0.1% (FIG. 14). Sequencing of phase 1 NHL patients utilizing the 62 gene NHL NGS panel was completed for 10 archive tumor samples and 15 ctDNA samples (Table 15, FIG. 19A and FIG. 19B). In addition, microsatellite instability was monitored through the analysis of 5 distinct markers (BAT-25, BAT-26, MONO-27, NR-21 and NR-24), leading to one patient in the phase I trial being identified as microsatellite unstable based on the five tested markers (Table 15 and FIG. 19A and FIG. 19B, columns A16 and C16). Sequencing and an initial analysis of samples from patients in a phase 2 trial was completed with 58 archive tumor and 72 ctDNA baseline patient samples, wherein 48 of the archive tumor patients and 68 of the ctDNA patients were sequenced with reported response data.
# Oral bioavailability = conditions: in vivo
# [3] = phase 2, archive tumor, 6 patients with MYD88 (273P) mutations
# [4] = phase 2, archive tumor, 9 patients with EZH2 mutations
# [5] = phase 2, archive tumor, 13 patients with STAT6 mutations
# [6] = phase 2, ctDNA variant allele frequencies of 0.1%, 6 patients with MYD88 (273P) mutations
# [7] = phase 2, ctDNA variant allele frequencies of 0.1%, 11 patients with EZH2 mutations
# [8] = phase 2, ctDNA variant allele frequencies of 0.1%, 14 patients with STAT6 mutations
# [9] = phase 2, ctDNA variant allele frequencies of 0.1%, 18 patients with MYC mutations
# [10] = phase 2, ctDNA variant allele frequencies of 1%, 5 patients with MYD88 (273P) mutations
# [11] = phase 2, ctDNA variant allele frequencies of 1%, 8 patients with EZH2 mutations
# [12] = phase 2, ctDNA variant allele frequencies of 1%, 10 patients with STAT6 mutations
compound,measurement,setting,value
CCN(c1cc(-c2ccc(CN3CCOCC3)cc2)cc(C(=O)NCc2c(C)cc(C)[nH]c2=O)c1C)C1CCOCC1 [tazemetostat],"Abdominal pain, All Events, All Grades",[1],4
same,"Abdominal pain, All Events, Grade ≥3",[1],1
same,"Abdominal pain, All Treatment-Related, All Grades",[1],1
same,"Abdominal pain, All Treatment-Related, Grade ≥3",[1],0
same,"Anemia, All Events, All Grades",[1],5
same,"Anemia, All Events, Grade ≥3",[1],0
same,"Anemia, All Treatment-Related, All Grades",[1],3
same,"Anemia, All Treatment-Related, Grade ≥3",[1],0
same,"Anxiety, All Events, All Grades",[1],3
same,"Anxiety, All Events, Grade ≥3",[1],0
same,"Anxiety, All Treatment-Related, All Grades",[1],1
same,"Anxiety, All Treatment-Related, Grade ≥3",[1],0
same,"Asthenia, All Events, All Grades",[1],23
same,"Asthenia, All Events, Grade ≥3",[1],0
same,"Asthenia, All Treatment-Related, All Grades",[1],13
same,"Asthenia, All Treatment-Related, Grade ≥3",[1],0
same,"Constipation, All Events, All Grades",[1],7
same,"Constipation, All Events, Grade ≥3",[1],0
same,"Constipation, All Treatment-Related, All Grades",[1],2
same,"Constipation, All Treatment-Related, Grade ≥3",[1],0
same,"Decreased appetite, All Events, All Grades",[1],9
same,"Decreased appetite, All Events, Grade ≥3",[1],1
same,"Decreased appetite, All Treatment-Related, All Grades",[1],4
same,"Decreased appetite, All Treatment-Related, Grade ≥3",[1],0
same,"Depression, All Events, All Grades",[1],3
same,"Depression, All Events, Grade ≥3",[1],2
same,"Depression, All Treatment-Related, All Grades",[1],1
same,"Depression, All Treatment-Related, Grade ≥3",[1],0
same,"Diarrhea, All Events, All Grades",[1],6
same,"Diarrhea, All Events, Grade ≥3",[1],0
same,"Diarrhea, All Treatment-Related, All Grades",[1],4
same,"Diarrhea, All Treatment-Related, Grade ≥3",[1],0
same,"Dry skin, All Events, All Grades",[1],5
same,"Dry skin, All Events, Grade ≥3",[1],0
same,"Dry skin, All Treatment-Related, All Grades",[1],4
same,"Dry skin, All Treatment-Related, Grade ≥3",[1],0
same,"Dysgeusia, All Events, All Grades",[1],5
same,"Dysgeusia, All Events, Grade ≥3",[1],0
same,"Dysgeusia, All Treatment-Related, All Grades",[1],5
same,"Dysgeusia, All Treatment-Related, Grade ≥3",[1],0
same,"Dyspnea, All Events, All Grades",[1],5
same,"Dyspnea, All Events, Grade ≥3",[1],0
same,"Dyspnea, All Treatment-Related, All Grades",[1],0
same,"Dyspnea, All Treatment-Related, Grade ≥3",[1],0
same,"Hepatocellular injury, All Events, All Grades",[1],2
same,"Hepatocellular injury, All Events, Grade ≥3",[1],1
same,"Hepatocellular injury, All Treatment-Related, All Grades",[1],1
same,"Hepatocellular injury, All Treatment-Related, Grade ≥3",[1],1
same,"Hypertension, All Events, All Grades",[1],3
same,"Hypertension, All Events, Grade ≥3",[1],1
same,"Hypertension, All Treatment-Related, All Grades",[1],2
same,"Hypertension, All Treatment-Related, Grade ≥3",[1],1
same,"Hypophosphatemia, All Events, All Grades",[1],4
same,"Hypophosphatemia, All Events, Grade ≥3",[1],0
same,"Hypophosphatemia, All Treatment-Related, All Grades",[1],1
same,"Hypophosphatemia, All Treatment-Related, Grade ≥3",[1],0
same,"Insomnia, All Events, All Grades",[1],3
same,"Insomnia, All Events, Grade ≥3",[1],0
same,"Insomnia, All Treatment-Related, All Grades",[1],0
same,"Insomnia, All Treatment-Related, Grade ≥3",[1],0
same,"Muscle spasms, All Events, All Grades",[1],5
same,"Muscle spasms, All Events, Grade ≥3",[1],0
same,"Muscle spasms, All Treatment-Related, All Grades",[1],3
same,"Muscle spasms, All Treatment-Related, Grade ≥3",[1],0
same,"Nausea, All Events, All Grades",[1],8
same,"Nausea, All Events, Grade ≥3",[1],0
same,"Nausea, All Treatment-Related, All Grades",[1],8
same,"Nausea, All Treatment-Related, Grade ≥3",[1],0
same,"Neutropenia, All Events, All Grades",[1],3
same,"Neutropenia, All Events, Grade ≥3",[1],1
same,"Neutropenia, All Treatment-Related, All Grades",[1],3
same,"Neutropenia, All Treatment-Related, Grade ≥3",[1],1
same,"Night sweats, All Events, All Grades",[1],3
same,"Night sweats, All Events, Grade ≥3",[1],0
same,"Night sweats, All Treatment-Related, All Grades",[1],3
same,"Night sweats, All Treatment-Related, Grade ≥3",[1],0
same,"Peripheral edema, All Events, All Grades",[1],3
same,"Peripheral edema, All Events, Grade ≥3",[1],0
same,"Peripheral edema, All Treatment-Related, All Grades",[1],2
same,"Peripheral edema, All Treatment-Related, Grade ≥3",[1],0
same,Safety profile as monotherapy,[1],acceptable
same,"Thrombocytopenia, All Events, All Grades",[1],8
same,"Thrombocytopenia, All Events, Grade ≥3",[1],2
same,"Thrombocytopenia, All Treatment-Related, All Grades",[1],7
same,"Thrombocytopenia, All Treatment-Related, Grade ≥3",[1],1
same,"Vomiting, All Events, All Grades",[1],6
same,"Vomiting, All Events, Grade ≥3",[1],0
same,"Vomiting, All Treatment-Related, All Grades",[1],5
same,"Vomiting, All Treatment-Related, Grade ≥3",[1],0
same,clinical responses in phase 1 clinical trial,[2]; both EZH2 mutant and wild type patients,demonstrated clinical responses
same,clinical activity as a monotherapy,"[2]; relapsed or refractory DLBCL (GCB and non-GCB), FL and MZL",demonstrates clinical activity
same,Response,"relapsed refractory NHL; Sample ID 10012004, STAT6 419D > G, vaf 42%, DLBCL GCB EZH2 Wild-type",Progressive Disease
same,Response,"relapsed refractory NHL; Sample ID 10032007, STAT6 419D > G, vaf 36%, FL EZH2 Wild-type",Partial Response
same,Response,"relapsed refractory NHL; Sample ID 10042005, STAT6 419D > G, vaf 19%, FL EZH2 Wild-type",Partial Response
same,Response,"relapsed refractory NHL; Sample ID 10052001, STAT6 419D > G, vaf 24%, FL EZH2 Mutant",Partial Response
same,Response,"relapsed refractory NHL; Sample ID 10062002, STAT6 419D > G, vaf 29%, DLBCL GCB EZH2 Wild-type",Stable Disease
same,Response,"relapsed refractory NHL; Sample ID 20012001, STAT6 286Q > R, vaf 24%, DLBCL GCB EZH2 Wild-type",Stable Disease
same,Response,"relapsed refractory NHL; Sample ID 20012003, STAT6 417N > S, vaf 27%, DLBCL GCB EZH2 Wild-type",Stable Disease
same,Response,"relapsed refractory NHL; Sample ID 20022001, STAT6 377E > K, vaf 33%, FL EZH2 Mutant",Partial Response
same,Response,"relapsed refractory NHL; Sample ID 20022008, STAT6 371C > R, vaf 35%, FL EZH2 Wild-type",Progressive Disease
same,Response,"relapsed refractory NHL; Sample ID 20042003, STAT6 419D > A, vaf 39%, DLBCL GCB EZH2 Mutant",Partial Response
same,Response,"relapsed refractory NHL; Sample ID 20052004, STAT6 419D > A, vaf 30%, DLBCL GCB EZH2 Wild-type",Complete Response
same,Response,"relapsed refractory NHL; Sample ID 30022001, STAT6 419D > H, vaf 42%, DLBCL GCB EZH2 Wild-type",Progressive Disease
same,Response,"relapsed refractory NHL; Sample ID 50022001, STAT6 419D > Y, vaf 39%, DLBCL non-GCB",Stable Disease
same,response associated with MYC translocations,"relapsed refractory NHL; phase 2, archive tumor, 2 MYC translocations",lack of response
same,"best response CR, number of patients",relapsed refractory NHL; [3],3
same,"best response PD, number of patients",relapsed refractory NHL; [3],1
same,"best response PR, number of patients",relapsed refractory NHL; [3],1
same,"best response PD, number of patients","relapsed refractory NHL; phase 2, archive tumor, 7 patients with MYC mutations",5
same,"best response PD, number of patients",relapsed refractory NHL; [4],2
same,"best response PR, number of patients",relapsed refractory NHL; [4],4
same,"best response SD, number of patients",relapsed refractory NHL; [4],3
same,"best response CR, number of patients",relapsed refractory NHL; [5],1
same,"best response PD, number of patients",relapsed refractory NHL; [5],3
same,"best response PR, number of patients",relapsed refractory NHL; [5],5
same,"best response SD, number of patients",relapsed refractory NHL; [5],4
same,response associated with MYC translocations,"relapsed refractory NHL; phase 2, ctDNA variant allele frequencies of 0.1%, 5 MYC translocations",lack of response
same,"best response CR, number of patients",relapsed refractory NHL; [6],2
same,"best response PD, number of patients",relapsed refractory NHL; [6],2
same,"best response PR, number of patients",relapsed refractory NHL; [6],1
same,"best response SD, number of patients",relapsed refractory NHL; [6],1
same,"best response PD, number of patients",relapsed refractory NHL; [7],3
same,"best response PR, number of patients",relapsed refractory NHL; [7],5
same,"best response SD, number of patients",relapsed refractory NHL; [7],2
same,"best response PD, number of patients",relapsed refractory NHL; [8],3
same,"best response PR, number of patients",relapsed refractory NHL; [8],5
same,"best response SD, number of patients",relapsed refractory NHL; [8],6
same,"best response PD, number of patients",relapsed refractory NHL; [9],9
same,"best response PR, number of patients",relapsed refractory NHL; [9],2
same,"best response SD, number of patients",relapsed refractory NHL; [9],3
same,response associated with MYC translocations,"relapsed refractory NHL; phase 2, ctDNA variant allele frequencies of 1%, 5 MYC translocations",lack of response
same,"best response PD, number of patients","relapsed refractory NHL; phase 2, ctDNA variant allele frequencies of 1%, 5 patients with MYC mutations",3
same,"best response CR, number of patients",relapsed refractory NHL; [10],2
same,"best response PD, number of patients",relapsed refractory NHL; [10],2
same,"best response PR, number of patients",relapsed refractory NHL; [10],1
same,"best response PD, number of patients",relapsed refractory NHL; [11],3
same,"best response PR, number of patients",relapsed refractory NHL; [11],4
same,"best response SD, number of patients",relapsed refractory NHL; [11],1
same,"best response PD, number of patients",relapsed refractory NHL; [12],2
same,"best response PR, number of patients",relapsed refractory NHL; [12],4
same,"best response SD, number of patients",relapsed refractory NHL; [12],4
same,oral bioavailability,Oral bioavailability,orally bioavailable
